Data from patent publication US8293979B2, “Weed controller metabolism proteins, genes, thereof and use of the same” (Sumitomo Chemical Company, Limited, priority 2001, dated 2012).

Legend:
[1] = test system: Streptomyces kasugaensis ATCC15714; experiment: Metabolism of compound (II) by a microorganism; type: in vitro ADME; details: compound (II) at 100 ppm, 7 to 8 days at 30° C.
Experimental: (§1) The HPLC for content analysis in Examples 1, 41 and 42 and fraction purification of the compound was conducted under the conditions shown below.
(§2) The various microorganisms shown in Tables 1 and 2 were grown in ISP2 agar medium (1.0% (w/v) malt extract, 0.4% (w/v) yeast extract, 0.4% (w/v) glucose, 2.0% (w/v) agar, pH 7.3). A “loopful” of the each microorganism was added to TGY medium (0.5% (w/v) tryptone, 0.5% (w/v) yeast extract, 0.1% (w/v) glucose, 0.01% (w/v) KH2PO4, pH 7.0) and incubated with shaking at 30° C. for 2 to 4 days. One-tenth milliliter (0.1 ml) of the obtained culture was incubated with shaking in 3 ml of sporulation medium (0.1% (w/v) of meat extract, 0.2% (w/v) tryptose, 1% glucose, pH 7.1) containing compound (II) at 100 ppm for 7 to 8 days at 30° C. Fifty microliters (50 μl) of 2N HCl was added to the resulting culture and this was extracted with 3 ml of ethyl acetate. The obtained ethyl acetate layer was analyzed on the HPLC. The concentration of compound (II) was reduced (column retention time of 23.9 minutes) and new peaks were detected for compounds at retention times of 21.6 minutes and 22.2 minutes (each referred to as metabolite (I) and metabolite (II)).

[2] = test system: Streptomyces nogalater IFO13445; experiment: Metabolism of compound (II) by a microorganism; type: in vitro ADME; details: compound (II) at 100 ppm, 7 to 8 days at 30° C.
Experimental: as §1, §2

[3] = test system: Streptomyces chartreusis ATCC21901; experiment: Metabolism of compound (II) by a microorganism; type: in vitro ADME; details: compound (II) at 100 ppm, 7 to 8 days at 30° C.
Experimental: as §1, §2

[4] = test system: Streptomyces globisporus subsp. globisporus ATCC21903; experiment: Metabolism of compound (II) by a microorganism; type: in vitro ADME; details: compound (II) at 100 ppm, 7 to 8 days at 30° C.
Experimental: as §1, §2

[5] = test system: Streptomyces lydicus IFO13058; experiment: Metabolism of compound (II) by a microorganism; type: in vitro ADME; details: compound (II) at 100 ppm, 7 to 8 days at 30° C.
Experimental: as §1, §2

[6] = test system: Streptomyces lavendulae ATCC11924; experiment: Metabolism of compound (II) by a microorganism; type: in vitro ADME; details: compound (II) at 100 ppm, 7 to 8 days at 30° C.
Experimental: as §1, §2

[7] = test system: Streptomyces griseofuscus IFO12870t; experiment: Metabolism of compound (II) by a microorganism; type: in vitro ADME; details: compound (II) at 100 ppm, 7 to 8 days at 30° C.
Experimental: as §1, §2

[8] = test system: Streptomyces argenteolus var. toyonakensis ATCC21468; experiment: Metabolism of compound (II) by a microorganism; type: in vitro ADME; details: compound (II) at 100 ppm, 7 to 8 days at 30° C.
Experimental: as §1, §2

[9] = test system: Streptomyces griseus ATCC12475; experiment: Metabolism of compound (II) by a microorganism; type: in vitro ADME; details: compound (II) at 100 ppm, 7 to 8 days at 30° C.
Experimental: as §1, §2

[10] = test system: Streptomyces testaceus ATCC21469; experiment: Metabolism of compound (II) by a microorganism; type: in vitro ADME; details: compound (II) at 100 ppm, 7 to 8 days at 30° C.
Experimental: as §1, §2

[11] = test system: Streptomyces purpurascens ATCC25489; experiment: Metabolism of compound (II) by a microorganism; type: in vitro ADME; details: compound (II) at 100 ppm, 7 to 8 days at 30° C.
Experimental: as §1, §2

[12] = test system: present invention protein (A11); experiment: Detection of the ability to convert compound (II) to compound (III), E. coli pKSN849AF extract; type: in vitro ADME, Streptomyces nogalator IFO13445; details: 3 ppm of compound (II) labeled with 14C, components A, B, 10 minutes at 30° C.
Experimental: Reaction solutions of 30 μl were prepared and maintained for 1 hour at 30° C. The reaction solutions consisted of a 0.1M potassium phosphate buffer (pH7.0) containing 3 ppm of compound (II) labeled with ^14C, 2 mM of β-NADPH (hereinafter, referred to as “component A”) (Oriental Yeast Company), 0.2 mg/ml of a ferredoxin derived from spinach (hereinafter referred to as “component B”) (Sigma Company), 1 U/ml of ferredoxin reductase (hereinafter, referred to as “component C”) (Sigma Company) and 18 μl of the supernatant fraction recovered in Example 4(2). Further, there were prepared and maintained similarly reaction solutions having no addition of at least one component utilized in the composition of the above reaction solution, selected from component A, component B and component C. […] Next, the imaging plate was analyzed on Image Analyzer BAS2000 (Fuji Film Company). […]
Reaction solutions of 30 μl were prepared and maintained for 10 minutes at 30° C. […] Similarly to Example 4(3), the reaction solutions after the maintenance were extracted with ethyl acetate and the extracted layers were TLC analyzed. […] A spot corresponding to compound (III) was detected from the reaction solution containing E. coli pKSN849AF extract. In contrast, such a spot was not detected from the reaction solution containing E. coli pKSN2 extract.

[13] = test system: present invention protein (A23); experiment: Detection of the ability to convert compound (II) to compound (III), E. coli pKSN1584F extract; type: in vitro ADME, Streptomyces roseorubens IFO 13682T; details: 3 ppm of compound (II) labeled with 14C, components A, B, 10 minutes at 30° C.
Experimental: Reaction solutions of 30 μl were prepared and maintained for 10 minutes at 30° C. The reaction solutions consisted of a 0.1M potassium phosphate buffer (pH7.0) containing 3 ppm of compound (II) labeled with ^14C, 2 mM of β-NADPH (hereinafter, referred to as “component A”) (Oriental Yeast Company), 2 mg/ml of a ferredoxin derived from spinach (hereinafter referred to as “component B”) (Sigma Company), 0.1 U/ml of ferredoxin reductase (hereinafter, referred to as “component C”) (Sigma Company) and 23 μl of the supernatant fraction recovered in Example 32(2). Similarly to Example 4(3), the reaction solutions after the maintenance were extracted with ethyl acetate and the extracted layers were TLC analyzed. […] A spot corresponding to compound (III) was detected from the reaction solution containing E. coli pKSN849AF extract. In contrast, such a spot was not detected from the reaction solution containing E. coli pKSN2 extract.
Similarly to Example 32(3), reaction solutions of 30 μl were prepared and maintained for 10 minutes at 30° C. […] The reaction solutions after the maintenance were extracted with ethyl acetate and the extracted layers were TLC analyzed. […] A spot corresponding to compound (III) was detected from the reaction solution containing E. coli pKSN1584F extract. In contrast, such a spot was not detected from the reaction solution containing E. coli pKSN2 extract.

[14] = test system: present invention protein (A22); experiment: Metabolism of compounds by the present invention protein (A22), reaction solution, HPLC; type: in vitro ADME, Streptomyces pallidus IFO 13434T; details: 12.5 ppm of compound, components A, B, C, 20 μl supernatant fraction of Example 61(2), 30° C. for 10 minutes

SMILES | concentration of compound (II) [1] [ppm] | concentration of compound (II) [2] [ppm] | concentration of compound (II) [3] [ppm] | concentration of compound (II) [4] [ppm] | concentration of compound (II) [5] [ppm] | concentration of compound (II) [6] [ppm] | concentration of compound (II) [7] [ppm] | concentration of compound (II) [8] [ppm] | concentration of compound (II) [9] [ppm] | concentration of compound (II) [10] [ppm] | concentration of compound (II) [11] [ppm] | spot corresponding to compound (III) labeled with 14C (TLC) [12] | spot corresponding to compound (III) labeled with 14C (TLC) [13] | concentration of the compound detected from metabolism solution (A22) compared to control solution (A22) [14]
C[C@@H](Oc1cc(-n2c(=O)cc(C(F)(F)F)n(C)c2=O)c(F)cc1Cl)C(=O)O [compound (II)] | 92.4 | 12.8 | 61.1 | 79.9 | 62.0 | 89.6 | 49.5 | 13.0 | 51.1 | 18.4 | 70.9 | detected | detected | –
Cn1c(C(F)(F)F)cc(=O)n(-c2cc(Oc3cccnc3OCC(=O)O)c(Cl)cc2F)c1=O [compound (XII)] | – | – | – | – | – | – | – | – | – | – | – | – | – | lower
